Drawing on PubChem BioAssay AID248 (DTP/NCI, 2004), this text covers T/C for 22 compounds.

This assay relates to L1210 leukemia ip in BDF1 mice, survival T/C. Nature of the assay: NCI In Vivo Anticancer Drug Screen. Data for tumor model L1210 Leukemia (intraperitoneal) in B6D2F1 (BDF1) mice. Conditions: endpoint: mean survival time, higher = longer survival. In short, it runs like this: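 Each compound was tested against a transplantable tumor grown in mice. The endpoint was survival, with treated animals benchmarked against vehicle controls as a simple ratio.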

The mark [1] stands for this setting: dose: 100.0 mg/kg/injection, schedule: Q01DX001 (ip), vehicle: saline.
Where [2] appears, read: dose: 200.0 mg/kg/injection, schedule: Q01DX001 (ip), vehicle: saline.
Where [3] appears, read: dose: 100.0 mg/kg/injection, schedule: Q04DX002 (ip), vehicle: Klucel (hydroxypropylcellulose) (HPC).
The mark [4] stands for this setting: dose: 200.0 mg/kg/injection, schedule: Q04DX002 (ip), vehicle: Klucel (hydroxypropylcellulose) (HPC).
Where [5] appears, read: dose: 400.0 mg/kg/injection, schedule: Q04DX002 (ip), vehicle: Klucel (hydroxypropylcellulose) (HPC).
Where [6] appears, read: dose: 100.0 mg/kg/injection, schedule: Q01DX009 (ip), vehicle: saline.
Where [7] appears, read: dose: 200.0 mg/kg/injection, schedule: Q01DX009 (ip), vehicle: saline.
[8] abbreviates: dose: 400.0 mg/kg/injection, schedule: Q01DX009 (ip), vehicle: saline.
Where [9] appears, read: dose: 50.0 mg/kg/injection, schedule: Q01DX009 (ip), vehicle: saline.
The mark [10] stands for this setting: dose: 100.0 mg/kg/injection, schedule: Q01DX009 (ip), vehicle: Klucel (hydroxypropylcellulose) (HPC).
The mark [11] stands for this setting: dose: 100.0 mg/kg/injection, schedule: Q04DX003 (ip), vehicle: Klucel (hydroxypropylcellulose) (HPC).
Where [12] appears, read: dose: 200.0 mg/kg/injection, schedule: Q01DX009 (ip), vehicle: Klucel (hydroxypropylcellulose) (HPC).
The mark [13] stands for this setting: dose: 200.0 mg/kg/injection, schedule: Q04DX003 (ip), vehicle: Klucel (hydroxypropylcellulose) (HPC).
The mark [14] stands for this setting: dose: 400.0 mg/kg/injection, schedule: Q01DX009 (ip), vehicle: Klucel (hydroxypropylcellulose) (HPC).
Setting [15] is: dose: 400.0 mg/kg/injection, schedule: Q04DX003 (ip), vehicle: Klucel (hydroxypropylcellulose) (HPC).
Setting [16] is: dose: 12.5 mg/kg/injection, schedule: Q01DX009 (ip), vehicle: saline.
Where [17] appears, read: dose: 25.0 mg/kg/injection, schedule: Q01DX009 (ip), vehicle: saline.
[18] abbreviates: dose: 100.0 mg/kg/injection, schedule: Q04DX002 (ip), vehicle: saline with Tween-80.
The mark [19] stands for this setting: dose: 200.0 mg/kg/injection, schedule: Q04DX002 (ip), vehicle: saline with Tween-80.
[20] abbreviates: dose: 400.0 mg/kg/injection, schedule: Q04DX002 (ip), vehicle: saline with Tween-80.
The mark [21] stands for this setting: dose: 25.0 mg/kg/injection, schedule: Q01DX009 (ip), vehicle: Klucel (hydroxypropylcellulose) (HPC).
Where [22] appears, read: dose: 50.0 mg/kg/injection, schedule: Q01DX009 (ip), vehicle: Klucel (hydroxypropylcellulose) (HPC).
[23] abbreviates: dose: 100.0 mg/kg/injection, schedule: Q04DX003 (ip), vehicle: saline.
The mark [24] stands for this setting: dose: 200.0 mg/kg/injection, schedule: Q04DX003 (ip), vehicle: saline.
[25] abbreviates: dose: 400.0 mg/kg/injection, schedule: Q01DX001 (ip), vehicle: saline.
[26] abbreviates: dose: 100.0 mg/kg/injection, schedule: Q01DX001 (ip), vehicle: Klucel (hydroxypropylcellulose) (HPC).
Where [27] appears, read: dose: 200.0 mg/kg/injection, schedule: Q01DX001 (ip), vehicle: Klucel (hydroxypropylcellulose) (HPC).
[28] abbreviates: dose: 400.0 mg/kg/injection, schedule: Q01DX001 (ip), vehicle: Klucel (hydroxypropylcellulose) (HPC).
Setting [29] is: dose: 25.0 mg/kg/injection, schedule: Q04DX003 (ip), vehicle: saline.

Several values for one entry are separate records, joined by “and”; a condition that tells them apart may be missing. Identical values can stand only once. Toxic doses and inconclusive results are not listed.

Consider `Cc1cc(=O)[nH]c(O)c1C(=O)CC(=O)c1ccccc1`, for which the T/C is 97 % of control under setting [1] and 100 % of control under setting [2].

Consider `O=C(COc1ccc(F)cc1F)Oc1ccc([N+](=O)[O-])cc1`, for which the T/C was 101 % of control under setting [3], 104 % of control under setting [4] and 97 % of control under setting [5].

For `O=C(/C=C/c1ccccc1)c1ccc([N+](=O)[O-])cc1`, the T/C runs as follows: under setting [3], 94 % of control; under setting [4], 94 % of control; under setting [5], 108 % of control.

Consider `CC[N+](CC)(CC)CCNC(C)=O`, for which the T/C reads like this: under setting [6], 111 % of control; under setting [7], 100 % of control; under setting [8], 105 % of control.

`CCOP(=O)(OCC)N(C(=O)O)C1CCCCC1`: the T/C reads like this: under setting [9], 96 % of control; under setting [6], 109 % of control; under setting [7], 108 % of control; under setting [8], 105 % of control.

As to `Cc1cccc(Cl)c1NC(=O)CS`, the T/C was 104 % of control (dose: 100.0 mg/kg/injection, schedule: Q01DX009 (ip), vehicle: saline with Tween-80); 101 % of control (dose: 200.0 mg/kg/injection, schedule: Q01DX009 (ip), vehicle: saline with Tween-80); 106 % of control (dose: 400.0 mg/kg/injection, schedule: Q01DX009 (ip), vehicle: saline with Tween-80).

As for `CCCCSCC(N)C(=O)O` (stereo not drawn), the T/C is 96 % of control under setting [10]; 92 % of control under setting [11]; 96 % of control under setting [12]; 94 % of control under setting [13]; 98 % of control under setting [14]; 103 % of control under setting [15].

Turning to `Cn1cnc([N+](=O)[O-])c1[Se]c1ncnc2c1ccn2C1OC(CO)C(O)C1O` (stereo not drawn), the T/C by setting is: (dose: 6.25 mg/kg/injection, schedule: Q01DX009 (ip), vehicle: saline) 102 % of control; under setting [16], 105 % of control; under setting [17], 97 % of control.

On to `CC(C)(C)c1ccc(C(=O)O)cc1.[Cu+2]`, for which the T/C by setting is: (dose: 2.5 mg/kg/injection, schedule: Q01DX009 (ip), vehicle: Klucel (hydroxypropylcellulose) (HPC)) 109 % of control; (dose: 5.0 mg/kg/injection, schedule: Q01DX009 (ip), vehicle: Klucel (hydroxypropylcellulose) (HPC)) 101 % of control; (dose: 10.0 mg/kg/injection, schedule: Q01DX009 (ip), vehicle: Klucel (hydroxypropylcellulose) (HPC)) 106 % of control; (dose: 20.0 mg/kg/injection, schedule: Q01DX009 (ip), vehicle: Klucel (hydroxypropylcellulose) (HPC)) 101 % of control.

For `CP1(=S)CCC(=O)CC1`, the T/C runs as follows: under setting [18], 91 % of control; under setting [19], 95 % of control; under setting [20], 98 % of control.

Regarding `O=C1CC2c3ccccc3C1C1C(=O)OC(=O)C21` (stereo not drawn), the T/C reads like this: under setting [21], 94 % of control; under setting [22], 105 % of control; under setting [1], 102 % of control; under setting [10], 112 % of control; under setting [6], 96 % of control; under setting [11], 107 % of control. In addition, the T/C under setting [23] was 100 % of control; the T/C under setting [2] is 98 % of control; the T/C under setting [13] was 100 % of control; the T/C under setting [24] is 91 % of control; the T/C under setting [25] is 93 % of control; the T/C under setting [15] was 109 % of control.

For `O=S(=O)(O)Cc1c(O)ccc2ccccc12`, the T/C runs as follows: under setting [21], 96 % of control; under setting [22], 104 % of control; under setting [10], 96 % of control; under setting [18], 100 % of control; under setting [19], 100 % of control; under setting [20], 103 % of control.

Take `O=Nc1ccc(O)cc1Br`: the T/C was 100 % of control under setting [26]; 97 % of control under setting [27]; 100 % of control and 92 % of control under setting [28].

Consider `CC(C)(C)C1CC(C(F)(F)F)(C(F)(F)F)OS(=O)O1` (stereo not drawn), for which the T/C was 96 % of control under setting [16]; 102 % of control (dose: 12.5 mg/kg/injection, schedule: Q04DX003 (ip), vehicle: saline); 94 % of control under setting [17]; 91 % of control under setting [29]; 100 % of control under setting [9]; 94 % of control (dose: 50.0 mg/kg/injection, schedule: Q04DX003 (ip), vehicle: saline).

Consider `O=[N+]([O-])c1ccc(Nc2ccncc2)cc1`, for which the T/C reads like this: under setting [6], 103 % of control; under setting [23], 106 % of control; under setting [7], 106 % of control; under setting [24], 103 % of control; under setting [8], 104 % of control; (dose: 400.0 mg/kg/injection, schedule: Q04DX003 (ip), vehicle: saline) 114 % of control.

`O=c1[nH]/c(=C\c2ccc3c(c2)OCO3)c(=O)[nH]/c1=C\c1ccc2c(c1)OCO2`: the T/C is, setting by setting: under setting [10], 94 % of control; under setting [11], 93 % of control; under setting [12], 86 % of control; under setting [13], 96 % of control; under setting [14], 89 % of control; under setting [15], 98 % of control.

For `O=C(Nc1ccc2c(c1)C(=O)c1ccccc1C2=O)Nc1cc(C(F)(F)F)ccc1Cl`, the T/C reads like this: under setting [10], 103 % of control; under setting [12], 97 % of control; under setting [14], 88 % of control.

Turning to `CCCCCCCC[n+]1cccc(C(N)=O)c1`, the T/C by setting is: (dose: 100.0 mg/kg/injection, schedule: Q04DX003 (ip), vehicle: saline with Tween-80) 98 % of control; (dose: 200.0 mg/kg/injection, schedule: Q04DX003 (ip), vehicle: saline with Tween-80) 89 % of control.

As for `C=C1CC2CC(C)CCC2OC1=O` (stereo not drawn), the T/C runs as follows: under setting [1], 102 % of control; under setting [2], 98 % of control; under setting [25], 98 % of control.

In the case of `O=C(O)C1(C(=O)O)CCC1.[NH2-].[NH2-].[Pt+2]`, the T/C runs as follows: (dose: 2.0 mg/kg/injection, schedule: Q01DX009 (ip), vehicle: saline) 97 % of control; (dose: 4.0 mg/kg/injection, schedule: Q01DX001 (ip), vehicle: saline) 100 % of control; (dose: 4.0 mg/kg/injection, schedule: Q01DX009 (ip), vehicle: saline) 100 % of control; (dose: 8.0 mg/kg/injection, schedule: Q01DX001 (ip), vehicle: saline) 100 % of control; (dose: 8.0 mg/kg/injection, schedule: Q01DX009 (ip), vehicle: saline) 108 % of control; (dose: 16.0 mg/kg/injection, schedule: Q01DX001 (ip), vehicle: saline) 102 % of control. Also, the T/C (dose: 16.0 mg/kg/injection, schedule: Q01DX009 (ip), vehicle: saline) was 119 % of control; the T/C under setting [29] is 110 % of control and 113 % of control; the T/C (dose: 64.0 mg/kg/injection, schedule: Q01DX009 (ip), vehicle: saline) is 171 % of control; the T/C under setting [23] was 154 % of control and 176 % of control; the T/C (dose: 128.0 mg/kg/injection, schedule: Q01DX001 (ip), vehicle: saline) is 152 % of control; the T/C under setting [24] was 97 % of control and 105 % of control.

With `O=c1ccnc(SCc2ccccc2Cl)[nH]1`, the T/C by setting is: (dose: 100.0 mg/kg/injection, schedule: Q01DX Z (ip), vehicle: methylcellulose (MC)) 91 % of control; (dose: 200.0 mg/kg/injection, schedule: Q01DX Z (ip), vehicle: methylcellulose (MC)) 91 % of control.

`CCCCC1=CC(=O)C2CCCCC2C1=O` (stereo not drawn): the T/C reads like this: under setting [26], 102 % of control; under setting [27], 105 % of control; under setting [28], 92 % of control.
